Common to all, as to assay: Methyltransferase selectivity assay (SPA)
Assay type in all cases: biochemical

The target in one test is T1, GLP (Homo sapiens, UniProt Q9H9B1).
T1 construct: purchased Structural Genomics Consortium (SGC Toronto) in-house methyltransferase panel
T1 sequence (Q9H9B1 1-1298): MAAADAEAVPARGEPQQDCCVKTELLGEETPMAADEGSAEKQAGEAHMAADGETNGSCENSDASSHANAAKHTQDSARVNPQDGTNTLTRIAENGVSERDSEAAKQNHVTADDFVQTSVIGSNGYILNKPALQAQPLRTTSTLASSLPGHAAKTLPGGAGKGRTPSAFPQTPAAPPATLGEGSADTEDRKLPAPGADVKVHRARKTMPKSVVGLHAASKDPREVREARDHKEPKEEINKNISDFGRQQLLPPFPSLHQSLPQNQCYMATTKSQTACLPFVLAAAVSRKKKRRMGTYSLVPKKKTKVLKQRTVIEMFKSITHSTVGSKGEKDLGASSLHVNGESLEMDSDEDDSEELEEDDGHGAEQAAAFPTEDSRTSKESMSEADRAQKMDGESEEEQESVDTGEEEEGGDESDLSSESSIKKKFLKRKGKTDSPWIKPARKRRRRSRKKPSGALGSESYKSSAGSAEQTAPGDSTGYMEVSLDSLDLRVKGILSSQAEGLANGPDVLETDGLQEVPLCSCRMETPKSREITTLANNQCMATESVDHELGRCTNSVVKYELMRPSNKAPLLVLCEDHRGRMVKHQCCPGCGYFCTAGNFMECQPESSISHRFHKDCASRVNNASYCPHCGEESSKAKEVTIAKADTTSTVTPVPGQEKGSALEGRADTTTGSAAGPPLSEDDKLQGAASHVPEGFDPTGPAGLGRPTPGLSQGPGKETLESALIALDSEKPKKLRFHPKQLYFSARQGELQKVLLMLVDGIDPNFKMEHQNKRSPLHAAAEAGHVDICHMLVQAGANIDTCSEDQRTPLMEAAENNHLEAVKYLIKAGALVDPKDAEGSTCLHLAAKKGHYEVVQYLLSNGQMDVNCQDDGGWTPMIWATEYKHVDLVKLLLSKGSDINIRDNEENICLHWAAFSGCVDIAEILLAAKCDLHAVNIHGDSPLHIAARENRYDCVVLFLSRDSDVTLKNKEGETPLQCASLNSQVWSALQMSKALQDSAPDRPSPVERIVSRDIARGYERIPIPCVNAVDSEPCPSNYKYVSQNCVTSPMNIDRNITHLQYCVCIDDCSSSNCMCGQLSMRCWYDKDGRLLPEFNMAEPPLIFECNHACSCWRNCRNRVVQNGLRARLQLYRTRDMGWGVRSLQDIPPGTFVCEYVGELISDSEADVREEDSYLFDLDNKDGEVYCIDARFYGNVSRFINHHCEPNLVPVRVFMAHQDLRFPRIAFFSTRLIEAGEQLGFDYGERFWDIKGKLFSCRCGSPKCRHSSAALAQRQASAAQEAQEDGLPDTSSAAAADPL
To be noted: EHMT1, Exp1, Exp2. The method, then:
(§1) Selectivity against methyltransferases were determined as described previously. Details of the assays are described in the supplementary methods.
(§2) Methyltransferase selectivity assay1
(§3) The effect of chemical probes and negative controls on the methyltransferase activities of protein, DNA and RNA methyltransferases was tested by radiometric assays using 3H-SAM. For proteins such as MLL1 trimeric, MLL3 pentameric, EZH1 (PRC2) pentameric, and EZH2 (PRC2) trimeric complexes, as well as G9a, GLP, SUV39H1, SUV39H2, SUV420H1, SUV420H2, SETD2, SETD8, SETDB1, SETD7, PRMT1, PRMT3, PRMT4, PRMT5/ MEP50 complex, PRMT6, PRMT7, PRMT8, PRMT9, PRDM9, SMYD2, SMYD3, DNMT1, and BCDIN3D the incorporation of a tritium-labeled methyl group into biotinylated substrate was monitored using scintillation proximity assay (SPA). Briefly, a 10 µL reaction containing 3H-SAM and substrate at concentrations close to the apparent Km values for each enzyme (balanced conditions) was prepared. The reactions were quenched with 10 µL of 7.5 M guanidine hydrochloride; 180 µL of 20 mM Tris buffer (pH 8.0) were added, and the mixture was transferred to a 96-well FlashPlate and incubated for 1 h. The counts per minute (CPM) was measured on a TopCount plate reader. The CPM in the absence of compound or enzyme was defined as 100% activity and background (0%), respectively, for each dataset. […]

The target in a further test is T2, PRMT1 (Homo sapiens, UniProt Q99873).
T2 construct: purchased Structural Genomics Consortium (SGC Toronto) in-house methyltransferase panel
T2 sequence (Q99873 whole entry): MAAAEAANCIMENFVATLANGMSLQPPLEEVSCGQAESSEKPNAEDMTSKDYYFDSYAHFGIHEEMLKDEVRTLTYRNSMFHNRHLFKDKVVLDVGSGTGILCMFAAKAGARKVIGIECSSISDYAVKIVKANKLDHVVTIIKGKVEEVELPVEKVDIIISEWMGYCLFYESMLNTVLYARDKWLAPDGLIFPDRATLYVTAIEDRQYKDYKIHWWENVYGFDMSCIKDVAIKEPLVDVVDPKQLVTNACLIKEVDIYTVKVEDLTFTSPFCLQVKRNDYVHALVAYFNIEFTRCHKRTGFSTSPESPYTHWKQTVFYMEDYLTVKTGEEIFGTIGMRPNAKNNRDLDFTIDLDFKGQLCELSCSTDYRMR
The method, then: as §1, §2, §3

The target of the next test is T3, PRMT3 (Homo sapiens, UniProt O60678).
T3 construct: purchased Structural Genomics Consortium (SGC Toronto) in-house methyltransferase panel
T3 sequence (O60678 whole entry): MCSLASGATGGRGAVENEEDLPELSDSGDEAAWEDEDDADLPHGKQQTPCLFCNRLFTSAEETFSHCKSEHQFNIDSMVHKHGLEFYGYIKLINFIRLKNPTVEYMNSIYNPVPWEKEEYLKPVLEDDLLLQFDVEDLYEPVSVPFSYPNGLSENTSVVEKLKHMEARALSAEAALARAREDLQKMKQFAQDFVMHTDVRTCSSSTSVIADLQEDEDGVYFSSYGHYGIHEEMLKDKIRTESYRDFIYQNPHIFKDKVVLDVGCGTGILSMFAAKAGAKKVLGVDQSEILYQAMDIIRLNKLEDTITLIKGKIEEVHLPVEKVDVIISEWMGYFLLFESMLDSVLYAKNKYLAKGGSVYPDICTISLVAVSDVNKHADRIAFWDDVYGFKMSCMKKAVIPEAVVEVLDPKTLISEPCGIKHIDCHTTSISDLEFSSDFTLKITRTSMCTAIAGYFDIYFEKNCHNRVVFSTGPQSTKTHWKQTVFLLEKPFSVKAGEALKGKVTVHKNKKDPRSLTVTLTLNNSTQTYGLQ
The method, then: as §1, §2, §3

For the next test, the target named is T4, PRMT4 (Homo sapiens, UniProt Q86X55).
T4 construct: purchased Structural Genomics Consortium (SGC Toronto) in-house methyltransferase panel
T4 sequence (Q86X55 1-608): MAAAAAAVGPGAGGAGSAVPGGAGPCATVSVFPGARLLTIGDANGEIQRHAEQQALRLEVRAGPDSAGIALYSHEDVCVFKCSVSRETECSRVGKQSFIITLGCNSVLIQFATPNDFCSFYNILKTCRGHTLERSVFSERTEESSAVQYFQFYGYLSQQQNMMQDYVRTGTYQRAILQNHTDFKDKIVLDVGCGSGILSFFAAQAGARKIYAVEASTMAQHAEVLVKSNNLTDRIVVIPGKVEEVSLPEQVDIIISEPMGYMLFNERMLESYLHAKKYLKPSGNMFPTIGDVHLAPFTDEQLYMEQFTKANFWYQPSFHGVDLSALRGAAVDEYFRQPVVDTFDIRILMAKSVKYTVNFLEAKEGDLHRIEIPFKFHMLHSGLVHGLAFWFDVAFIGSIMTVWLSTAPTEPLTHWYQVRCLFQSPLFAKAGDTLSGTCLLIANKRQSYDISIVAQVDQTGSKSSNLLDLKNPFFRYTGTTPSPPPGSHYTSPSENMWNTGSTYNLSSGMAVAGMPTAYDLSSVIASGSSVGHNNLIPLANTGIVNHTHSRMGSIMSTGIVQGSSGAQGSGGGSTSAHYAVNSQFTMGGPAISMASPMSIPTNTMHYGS
The method, then:
as §1, §2, §3

A further test deals with T5, SUV420H1 (Homo sapiens, UniProt Q4FZB7).
T5 construct: purchased Structural Genomics Consortium (SGC Toronto) in-house methyltransferase panel
T5 sequence (Q4FZB7 whole entry): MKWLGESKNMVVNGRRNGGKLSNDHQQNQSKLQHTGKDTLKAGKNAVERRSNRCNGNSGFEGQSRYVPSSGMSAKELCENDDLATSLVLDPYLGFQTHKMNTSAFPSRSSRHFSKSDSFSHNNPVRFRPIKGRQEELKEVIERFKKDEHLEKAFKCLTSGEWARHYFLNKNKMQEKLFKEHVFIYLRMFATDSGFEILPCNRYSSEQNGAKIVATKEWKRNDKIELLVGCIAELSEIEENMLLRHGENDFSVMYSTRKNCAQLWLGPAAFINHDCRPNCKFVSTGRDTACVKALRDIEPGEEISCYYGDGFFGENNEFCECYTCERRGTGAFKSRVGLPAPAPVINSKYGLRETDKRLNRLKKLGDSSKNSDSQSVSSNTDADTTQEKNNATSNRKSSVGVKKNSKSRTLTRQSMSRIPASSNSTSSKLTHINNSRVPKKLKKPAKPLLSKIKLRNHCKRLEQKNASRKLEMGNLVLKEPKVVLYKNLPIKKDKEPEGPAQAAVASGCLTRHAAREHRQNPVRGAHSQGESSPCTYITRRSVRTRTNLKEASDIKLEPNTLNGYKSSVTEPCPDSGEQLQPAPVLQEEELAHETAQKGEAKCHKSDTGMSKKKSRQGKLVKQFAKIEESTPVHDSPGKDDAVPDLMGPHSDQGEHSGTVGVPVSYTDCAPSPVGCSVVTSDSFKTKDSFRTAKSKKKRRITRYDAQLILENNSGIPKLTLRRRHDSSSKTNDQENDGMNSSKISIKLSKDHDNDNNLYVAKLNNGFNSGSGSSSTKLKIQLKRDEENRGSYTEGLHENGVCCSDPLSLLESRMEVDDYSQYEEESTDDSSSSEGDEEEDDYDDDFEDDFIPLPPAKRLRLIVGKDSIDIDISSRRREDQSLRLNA
The protocol:
as §1, §2, §3

[1] abbreviates: 10µM compound, Exp1, Exp2, 10 µM.
Where [2] appears, read: 1µM compound, Exp1, Exp2, read-out: Activity %.
Where [3] appears, read: 10µM compound, Exp1, Exp2, read-out: Activity %.

Read-outs that look alike come from different tables or passages of the source.

For `COc1cc(OC)cc(-c2noc(N3CCN(C)C4(CCN(c5ccccc5)CC4)C3)n2)c1` [MRK-740 -NC], the activity at 1 µM at GLP (1µM compound) is 100%; on PRMT1 (1µM compound, Exp1, Exp2), 108%; at PRMT3 (1µM compound, Exp1, Exp2), 105%; on PRMT4 (1µM compound, Exp1, Exp2) it was 108%; on SUV420H1 (1µM compound, Exp1, Exp2), 103%. The activity at 10 µM on GLP (10µM compound) was 95%; at PRMT1 (10µM compound, Exp1, Exp2) it was 105%; on PRMT3 (10µM compound, Exp1, Exp2), 104%; on PRMT4 (10µM compound, Exp1, Exp2), 87%; on SUV420H1 (10µM compound, Exp1, Exp2) it was 99%. For the same compound, the Activity % was found to be 98% at GLP (10µM compound, 10 µM); 109% at PRMT1 (1µM compound, Exp1, Exp2, 1 µM); 98% at PRMT1 (setting [1]); 106% on PRMT3 (1µM compound, Exp1, Exp2, 1 µM); 97% at PRMT3 (setting [1]); 89% on PRMT4 (1µM compound, Exp1, Exp2, 1 µM). The Activity % on PRMT4 (setting [1]) stood at 89%; at SUV420H1 (1µM compound, Exp1, Exp2, 1 µM), 105%; on SUV420H1 (setting [1]), 95%.

Turning to `COc1cc(OC)cc(-c2noc(N3CCN(C)C4(CCN(c5ccnc(C)c5)CC4)C3)n2)c1` [MRK-740], the Activity % at GLP (1µM compound, 1 µM) stood at 100%; at GLP (10µM compound, 10 µM), 84%; on PRMT1 (1µM compound, Exp1, Exp2, 1 µM) it was 96%; on PRMT1 (setting [1]) it was 89%; on PRMT3 (1µM compound, Exp1, Exp2, 1 µM) it was 88%; at PRMT3 (setting [1]), 87%. Moreover, the Activity % at PRMT4 (1µM compound, Exp1, Exp2, 1 µM) is 98%; on PRMT4 (setting [1]), 99%; at SUV420H1 (1µM compound, Exp1, Exp2, 1 µM), 102%; at SUV420H1 (setting [1]), 103%. Also, the activity at 1 µM at GLP (1µM compound, read-out: Activity %) amounted to 93%; on PRMT1 (setting [2]) it was 94%; on PRMT3 (setting [2]) it was 90%; at PRMT4 (setting [2]), 101%; on SUV420H1 (setting [2]), 101%. Further, the activity at 10 µM came to 94% on GLP (10µM compound, read-out: Activity %); 91% at PRMT1 (setting [3]); 92% at PRMT3 (setting [3]); 96% at PRMT4 (setting [3]); 86% at SUV420H1 (setting [3]).
